For 29 compounds, melting point and EC50 results are on record in patent publication US11008323B2, “Substituted tricyclic 1,4-benzodiazepinone derivatives as allosteric modulators of group II metabotropic glutamate receptors” (Domain Therapeutics, priority 2015, dated 2021).

For one data set, the target named is T1, human mGluR3 (hmGluR3) (Homo sapiens, UniProt Q14832).
T1 construct: expressed in transfected cells; host or cells: HEK-293 cells, transient co-transfection by electroporation
Nature of the data set: Human mGluR3 positive allosteric modulator evaluation using Ca++ functional assay. Type of data set: cell-based. Conditions: hmGluR3 transiently over-expressed in HEK-293 cells; stimulated by EC50 glutamate concentration; intracellular Ca2+ (Fluo4AM, FLIPR Tetra). In a few lines:
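Calcium flux (Fluo4, ex 485/em 525 nm) recorded first 10 min with compound alone, then 3 min after an EC50 glutamate challenge, giving agonist and PAM EC50 from 20-concentration sigmoidal fits. Receptor was transiently co-transfected in HEK-293 with chimeric G protein and glutamate transporters.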

T1 sequence (Q14832 23-879): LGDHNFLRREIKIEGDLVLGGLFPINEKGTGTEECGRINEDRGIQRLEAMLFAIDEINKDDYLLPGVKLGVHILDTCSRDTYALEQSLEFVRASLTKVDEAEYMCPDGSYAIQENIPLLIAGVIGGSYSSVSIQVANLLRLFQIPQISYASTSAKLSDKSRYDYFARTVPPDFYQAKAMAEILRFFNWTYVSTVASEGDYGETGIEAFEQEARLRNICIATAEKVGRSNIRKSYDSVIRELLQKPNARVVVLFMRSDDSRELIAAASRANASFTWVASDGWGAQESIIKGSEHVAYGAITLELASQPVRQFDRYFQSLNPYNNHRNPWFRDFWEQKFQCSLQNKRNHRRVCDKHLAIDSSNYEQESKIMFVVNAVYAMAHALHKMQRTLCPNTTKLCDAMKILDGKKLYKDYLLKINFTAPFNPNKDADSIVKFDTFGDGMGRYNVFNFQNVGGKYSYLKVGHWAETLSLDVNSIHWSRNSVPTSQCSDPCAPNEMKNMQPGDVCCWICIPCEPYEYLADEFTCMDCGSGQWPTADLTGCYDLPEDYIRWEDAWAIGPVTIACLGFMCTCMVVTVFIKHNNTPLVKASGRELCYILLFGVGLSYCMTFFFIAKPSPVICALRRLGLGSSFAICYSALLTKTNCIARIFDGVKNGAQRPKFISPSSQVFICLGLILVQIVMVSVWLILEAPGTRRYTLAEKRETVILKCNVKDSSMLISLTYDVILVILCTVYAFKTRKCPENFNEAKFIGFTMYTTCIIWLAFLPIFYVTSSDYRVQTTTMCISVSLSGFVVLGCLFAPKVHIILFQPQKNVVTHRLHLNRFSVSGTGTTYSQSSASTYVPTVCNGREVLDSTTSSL

On to `Cc1cccc2c1-n1cccc1C(=O)N(C)C21CC1` [Example 90, 5,10-Dimethyl-spiro[benzo[f]pyrrolo[1,2-a][1,4]diazepine-6,1′-cyclopropan]-4(5H)-one], for which the melting point lay within 200 to 207 °C. Moreover, the EC50 on human mGluR3 (hmGluR3) is over 1000 nM.

As for `CN1C(=O)c2cccn2-c2c(C#N)cccc2C12CC2` [Example 91, 10-Cyano-5-methyl-spiro[benzo[f]pyrrolo[1,2-a][1,4]diazepine-6,1′-cyclopropan]-4(5H)-one], the melting point came to 250 °C. Further, the EC50 on human mGluR3 (hmGluR3) is over 1000 nM.

Compound `CN1C(=O)c2cc(-c3ccccc3)cn2-c2cc(-c3cccc(C(=O)O)c3)ccc2C12CC2` [Example 94, 3-(5-methyl-4-oxo-2-phenyl-4,5-dihydrospiro[benzo[f]pyrrolo[1,2-a][1,4]diazepine-6,1′-cyclopropan]-9-yl)benzoic acid] registered a melting point of over 250 °C. This compound came in with an EC50 at human mGluR3 (hmGluR3) of under 100 nM.

The compound `CN1C(=O)c2cc(-c3ccccc3)cn2-c2cc(-c3cccnc3C(F)(F)F)ccc2C12CC2` [Example 100, 5-Methyl-2-phenyl-9-(2-trifluoromethyl-pyridin-3-yl)-spiro[benzo[f]pyrrolo[1,2-a][1,4]diazepine-6,1′-cyclopropan]-4(5H)-one] displayed a melting point of 199 to 204 °C. Further, the EC50 on human mGluR3 (hmGluR3) was over 1000 nM.

For the compound `CN1C(=O)c2cc(-c3ccccc3)cn2-c2cc(-c3ccc(F)nc3)ccc2C12CC2` [Example 106, 5-Methyl-2-phenyl-9-(6-fluoro-pyridin-3-yl)-spiro[benzo[f]pyrrolo[1,2-a][1,4]diazepine-6,1′-cyclopropan]-4(5H)-one], the melting point is 177 to 184 °C. At human mGluR3 (hmGluR3), this compound had an EC50 of under 100 nM.

`CN1C(=O)c2cc(-c3ccccc3)cn2-c2cc(-c3cnccn3)ccc2C12CC2` [Example 108, 5-Methyl-2-phenyl-9-pyrazin-2-yl-spiro[benzo[f]pyrrolo[1,2-a][1,4]diazepine-6,1′-cyclopropan]-4(5H)-one] showed a melting point of 130 to 141 °C. The compound further came in with an EC50 on human mGluR3 (hmGluR3) of 100 to 1000 nM.

The compound `CN1C(=O)c2cc(-c3ccccc3)cn2-c2cc(-c3ccc(F)cn3)ccc2C12CC2` [Example 110, 5-Methyl-2-phenyl-9-(5-fluoro-pyridin-2-yl)-spiro[benzo[f]pyrrolo[1,2-a][1,4]diazepine-6,1′-cyclopropan]-4(5H)-one] gave a melting point of 140 to 151 °C. At human mGluR3 (hmGluR3), this compound registered an EC50 of under 100 nM.

Take `CN1C(=O)c2cc(-c3ccccc3)cn2-c2cc(-c3cccnc3F)ccc2C12CC2` [Example 113, 5-Methyl-2-phenyl-9-(2-fluoro-pyridin-3-yl)-spiro[benzo[f]pyrrolo[1,2-a][1,4]diazepine-6,1′-cyclopropan]-4(5H)-one]: the melting point was in the range of 143 to 149 °C. This compound also had an EC50 at human mGluR3 (hmGluR3) of 100 to 1000 nM.

With `COc1ncccc1-c1ccc2c(c1)-n1cc(-c3ccccc3)cc1C(=O)N(C)C21CC1` [Example 116, 5-Methyl-2-phenyl-9-(2-methoxy-pyridin-3-yl)-spiro[benzo[f]pyrrolo[1,2-a][1,4]diazepine-6,1′-cyclopropan]-4(5H)-one], the melting point lay within 183 to 186 °C. The same compound yielded an EC50 at human mGluR3 (hmGluR3) of 100 to 1000 nM.

`CN1C(=O)c2cc(-c3ccccc3)cn2-c2cc(-c3ccc(C#N)nc3)ccc2C12CC2` [Example 117, 5-Methyl-2-phenyl-9-(6-cyano-pyridin-3-yl)-spiro[benzo[f]pyrrolo[1,2-a][1,4]diazepine-6,1′-cyclopropan]-4(5H)-one] displayed a melting point of 200 to 204 °C. For the same compound, on human mGluR3 (hmGluR3), the EC50 was 100 to 1000 nM.

`CN1C(=O)c2cc(-c3ccccc3)cn2-c2ccc(N3CCOCC3)cc2C12CC2` [Example 120, 8-Morpholin-4-yl-5-methyl-2-phenyl-spiro[benzo[f]pyrrolo[1,2-a][1,4]diazepine-6,1′-cyclopropan]-4(5H)-one] displayed a melting point of 117 to 123 °C. For the same compound, at human mGluR3 (hmGluR3), the EC50 is over 1000 nM.

As to `CN1C(=O)c2cc(-c3ccccc3)nn2-c2cc(-c3ccccc3)ccc2C12CC2` [Example 123, 2,9-Diphenyl-5-methyl-2-spiro[benzo[f]pyrazolo[1,5-a][1,4]diazepine-6,1′-cyclopropan]-4(5H)-one], the melting point lay within 133 to 140 °C. The same compound gave an EC50 at human mGluR3 (hmGluR3) of over 1000 nM.

The compound `CN1C(=O)c2cc(-c3ccccc3)nn2-c2cc(-c3ccc(N)cc3)ccc2C12CC2` [Example 124, 9-(4-Amino-phenyl)-5-methyl-2-phenyl-spiro[benzo[f]pyrazolo[1,5-a][1,4]diazepine-6,1′-cyclopropan]-4(5H)-one] displayed a melting point of 195 to 209 °C. In addition, the EC50 on human mGluR3 (hmGluR3) was over 1000 nM.

As to `COc1ccc(-c2ccc3c(c2)-n2nc(-c4ccccc4)cc2C(=O)N(C)C32CC2)cc1` [Example 128, 9-(4-Methoxy-phenyl)-5-methyl-2-phenyl-spiro[benzo[f]pyrazolo[1,5-a][1,4]diazepine-6,1′-cyclopropan]-4(5H)-one], the melting point was over 250 °C. The EC50 on human mGluR3 (hmGluR3) fell in the range of 100 to 1000 nM.

For `CN1C(=O)c2cc(-c3ccccc3)nn2-c2cc(-c3cccc(C#N)c3)ccc2C12CC2` [Example 129, 9-(3-Cyano-phenyl)-5-methyl-2-phenyl-spiro[benzo[f]pyrazolo[1,5-a][1,4]diazepine-6,1′-cyclopropan]-4(5H)-one], the melting point was in the range of 185 to 190 °C. At human mGluR3 (hmGluR3), this compound showed an EC50 of 100 to 1000 nM.

In the case of `CN1C(=O)c2cc(-c3ccccc3)nn2-c2cc(-c3cnco3)ccc2C12CC2` [Example 132, 9-(Oxazol-5-yl)-5-methyl-2-phenyl-spiro[benzo[f]pyrazolo[1,5-a][1,4]diazepine-6,1′-cyclopropan]-4(5H)-one], the melting point was in the range of 214 to 220 °C. Also, the EC50 on human mGluR3 (hmGluR3) is 100 to 1000 nM.

`CN1C(=O)c2cc(-c3ccccc3)nn2-c2cc(-c3cccc(C(=O)O)c3)ccc2C12CC2` [Example 133, 3-(5-methyl-4-oxo-2-phenyl-4,5-dihydrospiro[benzo[f]pyrazolo[1,5-a][1,4]diazepine-6,1′-cyclopropan]-9-yl)benzoic acid] showed a melting point of 211 to 217 °C. The EC50 at human mGluR3 (hmGluR3) was under 100 nM.

Turning to `CN1C(=O)c2cc(-c3ccccc3)nn2-c2cc(-c3cn[nH]c3)ccc2C12CC2` [Example 134, 9-(1H-pyrazol-4-yl)-5-methyl-2-phenyl-spiro[benzo[f]pyrazolo[1,5-a][1,4]diazepine-6,1′-cyclopropan]-4(5H)-one], the melting point lay within 199 to 208 °C. In addition, the EC50 at human mGluR3 (hmGluR3) is 100 to 1000 nM.

The compound `CN1C(=O)c2cc(-c3ccccc3)nn2-c2cc(-c3cc[nH]n3)ccc2C12CC2` [Example 136, 9-(1H-pyrazol-3-yl)-5-methyl-2-phenyl-spiro[benzo[f]pyrazolo[1,5-a][1,4]diazepine-6,1′-cyclopropan]-4(5H)-one] displayed a melting point of 218 to 224 °C. The compound further returned an EC50 on human mGluR3 (hmGluR3) of 100 to 1000 nM.

`CN1C(=O)c2cc(-c3ccccc3)nn2-c2cc(C#N)ccc2C12CC2` [Example 137, 9-Cyano-5-methyl-2-phenyl-spiro[benzo[f]pyrazolo[1,5-a][1,4]diazepine-6,1′-cyclopropan]-4(5H)-one] came in with a melting point of 196 to 200 °C. Further, at human mGluR3 (hmGluR3), the concentration for a half-maximal effect (EC50) was over 1000 nM.

Regarding `CN1C(=O)c2cc(-c3ccccc3)nn2-c2ccccc2C12CC2` [Example 138, 5-Methyl-2-phenyl-spiro[benzo[f]pyrazolo[1,5-a][1,4]diazepine-6,1′-cyclopropan]-4(5H)-one], the melting point lay in the range of 212 to 218 °C. The EC50 on human mGluR3 (hmGluR3) was over 1000 nM.

`CN1C(=O)c2cc(-c3ccccc3)nn2-c2cc(N3CCCC3)ccc2C12CC2` [Example 139, 5-Methyl-2-phenyl-9-(pyrrolidin-1-yl)-spiro[benzo[f]pyrazolo[1,5-a][1,4]diazepine-6,1′-cyclopropan]-4(5H)-one] displayed a melting point of 226 to 230 °C. The same compound gave an EC50 at human mGluR3 (hmGluR3) of over 1000 nM.

`CN1C(=O)c2cc(-c3ccccc3)cn2-c2cc(-c3cccc(S(=O)(=O)N(C)C)c3)ccc2C12CC2` [Example 141, N,N-dimethyl-3-(5-methyl-4-oxo-2-phenyl-4,5-dihydrospiro[benzo[f]pyrrolo[1,2-a][1,4]diazepine-6,1′-cyclopropan]-9-yl)benzenesulfonamide] gave a melting point of 198 to 205 °C. The same compound gave an EC50 at human mGluR3 (hmGluR3) of 100 to 1000 nM.

The compound `CN1C(=O)c2cc(-c3ccccc3)nn2-c2cc(-c3cccc(S(=O)(=O)N(C)C)c3)ccc2C12CC2` [Example 142, N,N-dimethyl-3-(5-methyl-4-oxo-2-phenyl-4,5-dihydrospiro[benzo[f]pyrazolo[1,5-a][1,4]diazepine-6,1′-cyclopropan]-9-yl)benzenesulfonamide] returned a melting point of 182 to 189 °C. In addition, the EC50 at human mGluR3 (hmGluR3) lay within 100 to 1000 nM.

In turn, `Cc1ncccc1-c1ccc2c(c1)-n1cc(C#N)cc1C(=O)N(C)C21CC1` [Example 153] yielded a melting point of over 250 °C. On human mGluR3 (hmGluR3), this compound showed an EC50 of 100 to 1000 nM.

Take `Cc1ncccc1-c1ccc2c(c1)-n1cc(C(=O)O)cc1C(=O)N(C)C21CC1` [Example 176, 5-Methyl-9-(2-methylpyridin-3-yl)-4-oxo-4,5-dihydrospiro[benzo[f]pyrrolo[1,2-a][1,4]diazepine-6,1′-cyclopropane]-2-carboxylic acid]: the melting point was over 250 °C. This compound displayed an EC50 on human mGluR3 (hmGluR3) of 100 to 1000 nM.

Turning to `Cc1ncccc1-c1ccc2c(c1)-n1cc(-c3nnco3)cc1C(=O)N(C)C21CC1` [Example 185], the melting point was over 250 °C. At human mGluR3 (hmGluR3), this compound gave an EC50 of under 100 nM.

As to `CN1C(=O)c2cc(-c3ncc[nH]3)cn2-c2cc(-c3ccc(F)nc3)ccc2C12CC2` [Example 186], the melting point was over 250 °C. At human mGluR3 (hmGluR3), this compound displayed a concentration for a half-maximal effect (EC50) of under 100 nM.

Consider `CN1C(=O)c2cc(-c3nnco3)cn2-c2cc(-c3ccc(F)nc3)ccc2C12CC2` [Example 187], for which the melting point lay within 160 to 175 °C. On human mGluR3 (hmGluR3), this compound returned an EC50 of under 100 nM.

The melting point is the temperature, or range, at which the solid turns liquid. Broadly, the EC50 is the midpoint of the concentration-response curve. A lower EC50 goes with greater potency.
